According to paper PMC8447900 (Chemical Science, 2021):

Test system: hENT1
Type: cell-based, human
Details: PK15-ENT1 cells

SMILES	effect of AZD8055 on activity of isomer 1a (AZD8055 (5 μM) combined with isomer 1a)	effect of rapamycin on potency of isomer 1a (rapamycin (5 μM) combined with isomer 1a)
COc1ccc(-c2ccc3c(N4CCOC[C@@H]4C)nc(N4CCOC[C@@H]4C)nc3n2)cc1CO [AZD8055]	negligible effect on the activity of isomer 1a	
CO[C@H]1C[C@@H]2CC[C@@H](C)[C@@](O)(O2)C(=O)C(=O)N2CCCC[C@H]2C(=O)O[C@H]([C@H](C)C[C@@H]2CC[C@@H](O)[C@H](OC)C2)CC(=O)[C@H](C)/C=C(\C)[C@@H](O)[C@@H](OC)C(=O)[C@H](C)C[C@H](C)/C=C/C=C/C=C/1C [Rapamycin]		antagonizes isomer 1a inhibition of hENT1-mediated thymidine uptake
